From PubChem BioAssay (NCI)
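These data come from cells grown in 96-well plates and exposed to compound for 48 hours at five concentrations. Here, GI50 denotes the concentration required for 50% inhibition of growth. TGI: total growth inhibition.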

What was measured:
Assay in all cases: growth of human tumour cells (NCI), 48 h
CAKI-1 renal = test system: CAKI-1 renal
HL-60(TB) leukemia = test system: HL-60(TB) leukemia
IGROV1 ovarian = test system: IGROV1 ovarian
A498 renal = test system: A498 renal
EKVX NSCLC = test system: EKVX NSCLC
UACC-257 melanoma = test system: UACC-257 melanoma
OVCAR-8 ovarian = test system: OVCAR-8 ovarian
CCRF-CEM leukemia = test system: CCRF-CEM leukemia
A549 NSCLC = test system: A549 NSCLC
M14 melanoma = test system: M14 melanoma

## COc1ccc2sc3c(NCCCN(C)C)nc4ccccc4c3c(=O)c2c1
CAKI-1 renal
  GI50: 1.6 µM
  TGI: 2.95 µM
HL-60(TB) leukemia
  GI50: 1.88 µM
  TGI: 3.91 µM
IGROV1 ovarian
  GI50: 1.67 µM
  TGI: 3.23 µM
A498 renal
  GI50: 1.38 µM
  TGI: 2.78 µM
EKVX NSCLC
  GI50: 1.51 µM
  TGI: 2.93 µM
UACC-257 melanoma
  GI50: 1.81 µM
  TGI: 3.49 µM
OVCAR-8 ovarian
  GI50: 1.7 µM
  TGI: 3.62 µM
CCRF-CEM leukemia
  GI50: 1.57 µM
  TGI: 3.67 µM
A549 NSCLC
  GI50: 1.75 µM
  TGI: 3.74 µM
M14 melanoma
  GI50: 1.78 µM
  TGI: 3.33 µM

## CCCC(C)c1cc(Cc2cc(Cl)cc(Cl)c2O)c(O)c(Cc2cc(Cl)cc(Cl)c2O)c1 (stereo unspecified)
CAKI-1 renal
  GI50: 1.23 µM
  TGI: 10.4 µM
HL-60(TB) leukemia
  GI50: 1.1 µM
  TGI: 9.44 µM
IGROV1 ovarian
  GI50: 2.73 µM
  TGI: 14.5 µM
A498 renal
  GI50: 0.243 µM
  TGI: 2 µM
EKVX NSCLC
  GI50: 1.96 µM
  TGI: 11 µM
UACC-257 melanoma
  GI50: 1.84 µM
  TGI: 6.1 µM
OVCAR-8 ovarian
  GI50: 0.737 µM
  TGI: 14.6 µM
CCRF-CEM leukemia
  GI50: 0.432 µM
  TGI: 3.74 µM
A549 NSCLC
  GI50: 2.19 µM
  TGI: 12.5 µM
M14 melanoma
  GI50: 1.63 µM
  TGI: 7.46 µM

## O=C1[C@H]2ON(c3ccccc3)C(c3ccccc3Cl)[C@H]2C(=O)N1c1ccc(Cc2ccc(N3C(=O)[C@@H]4ON(c5ccccc5)C(c5ccccc5Cl)[C@@H]4C3=O)cc2)cc1 (stereo partly specified)
CAKI-1 renal
  TGI: > 100 µM
HL-60(TB) leukemia
  TGI: > 100 µM
IGROV1 ovarian
  TGI: > 100 µM
A498 renal
  TGI: > 100 µM
EKVX NSCLC
  TGI: > 100 µM
UACC-257 melanoma
  TGI: > 100 µM
OVCAR-8 ovarian
  TGI: > 100 µM
CCRF-CEM leukemia
  TGI: > 100 µM
A549 NSCLC
  TGI: > 100 µM
M14 melanoma
  TGI: 73.5 µM

## CC1SC2=NC3=C(c4ccccc4C3=O)C(c3ccc(F)cc3)N2C1=O (stereo unspecified)
CAKI-1 renal
  TGI: > 100 µM
HL-60(TB) leukemia
  TGI: > 100 µM
IGROV1 ovarian
  TGI: > 100 µM
A498 renal
  TGI: > 100 µM
EKVX NSCLC
  TGI: > 100 µM
UACC-257 melanoma
  TGI: > 100 µM
OVCAR-8 ovarian
  TGI: > 100 µM
CCRF-CEM leukemia
  TGI: > 100 µM
A549 NSCLC
  TGI: > 100 µM
M14 melanoma
  TGI: > 100 µM

## CC1(C)CC(=O)c2c(C(F)(F)F)nn(-c3ccc(C(N)=O)c(NC4CCC(OC(=O)CN)CC4)c3)c2C1 (stereo unspecified)
CAKI-1 renal
  GI50: 2.9 µM
  TGI: > 100 µM
HL-60(TB) leukemia
  GI50: 0.0398 µM
  TGI: 13.2 µM
IGROV1 ovarian
  GI50: 0.0422 µM
  TGI: > 39.2 µM
A498 renal
  GI50: 0.303 µM
  TGI: > 100 µM
UACC-257 melanoma
  GI50: 0.029 µM
  TGI: 0.0972 µM
OVCAR-8 ovarian
  GI50: 0.0593 µM
  TGI: > 100 µM
CCRF-CEM leukemia
  GI50: 0.0339 µM
  TGI: > 100 µM
A549 NSCLC
  GI50: 0.0666 µM
  TGI: 32.8 µM
M14 melanoma
  GI50: 0.0608 µM
  TGI: 26.5 µM

## CC#C[C@]1(O)CC[C@H]2[C@@H]3CCC4=CC(=O)CCC4=C3[C@@H](c3ccc4c(c3)OCO4)C[C@@]21C
HL-60(TB) leukemia
  GI50: 47.5 µM
  TGI: 399 µM
IGROV1 ovarian
  GI50: 59.9 µM
  TGI: 589 µM
A498 renal
  GI50: 88.3 µM
  TGI: 268 µM
EKVX NSCLC
  GI50: 40.4 µM
  TGI: 813 µM
UACC-257 melanoma
  GI50: 119 µM
  TGI: 410 µM
OVCAR-8 ovarian
  GI50: 141 µM
  TGI: 783 µM
CCRF-CEM leukemia
  GI50: 103 µM
  TGI: 619 µM
A549 NSCLC
  GI50: 93.4 µM
  TGI: 875 µM
M14 melanoma
  GI50: 31 µM
  TGI: 154 µM

## COc1ccc(-c2n/c(=C\c3c(O)[nH]c4ccc(OC)cc34)cc3c2=Nc2ccccc2-3)cc1
CAKI-1 renal
  GI50: 8.32 µM
  TGI: 45 µM
HL-60(TB) leukemia
  GI50: 10.3 µM
  TGI: 32.5 µM
IGROV1 ovarian
  GI50: 12 µM
  TGI: > 100 µM
A498 renal
  GI50: 11.6 µM
  TGI: 25.4 µM
EKVX NSCLC
  GI50: 21.2 µM
  TGI: 72.9 µM
UACC-257 melanoma
  GI50: 2.07 µM
  TGI: 4.48 µM
A549 NSCLC
  GI50: 3.43 µM
  TGI: 66.2 µM
M14 melanoma
  GI50: 1.98 µM
  TGI: 3.59 µM

## COc1ccc2c(c1)/C(=C\c1c(C)nc3sccn13)C(=O)N2
CAKI-1 renal
  GI50: < 0.0485 µM
  TGI: > 100 µM
HL-60(TB) leukemia
  GI50: 0.136 µM
  TGI: 0.534 µM
IGROV1 ovarian
  GI50: < 0.0252 µM
  TGI: 3.69 µM
A498 renal
  GI50: < 0.01 µM
  TGI: 0.0646 µM
EKVX NSCLC
  GI50: 2.12 µM
  TGI: > 100 µM
OVCAR-8 ovarian
  GI50: 0.306 µM
CCRF-CEM leukemia
  GI50: 0.0979 µM
  TGI: > 100 µM
A549 NSCLC
  GI50: 0.155 µM
  TGI: > 100 µM
M14 melanoma
  GI50: < 0.0495 µM
  TGI: > 100 µM

## COc1ccc(-c2c3c(N)nc(-c4ccncc4)nc3nc3c2c(C)nn3-c2ccccc2)cc1
CAKI-1 renal
  GI50: > 100 µM
  TGI: > 100 µM
HL-60(TB) leukemia
  GI50: > 100 µM
  TGI: > 100 µM
IGROV1 ovarian
  GI50: 59.3 µM
  TGI: > 100 µM
A498 renal
  GI50: 12.3 µM
  TGI: > 100 µM
UACC-257 melanoma
  GI50: 79.9 µM
  TGI: > 100 µM
OVCAR-8 ovarian
  GI50: 7.11 µM
  TGI: > 100 µM
CCRF-CEM leukemia
  GI50: 5.93 µM
  TGI: > 100 µM
A549 NSCLC
  GI50: 2.4 µM
  TGI: 35.1 µM
M14 melanoma
  GI50: 17.5 µM
  TGI: > 100 µM

## C1C[OH+]CC[OH+]CCNCC[OH+]CC[OH+]CCN1.N.[Cl-].[Pt+4]
CAKI-1 renal
  GI50: 7.5 µM
  TGI: 37.8 µM
HL-60(TB) leukemia
  GI50: 1.61 µM
  TGI: > 100 µM
IGROV1 ovarian
  GI50: 4.55 µM
  TGI: 34.7 µM
A498 renal
  GI50: 21.3 µM
  TGI: 55.1 µM
UACC-257 melanoma
  GI50: 3.19 µM
  TGI: 10.9 µM
OVCAR-8 ovarian
  GI50: 17 µM
  TGI: > 100 µM
CCRF-CEM leukemia
  GI50: 0.62 µM
  TGI: > 100 µM
A549 NSCLC
  GI50: 15.4 µM
  TGI: > 100 µM
M14 melanoma
  GI50: 5.31 µM
  TGI: 23.6 µM

## COc1ccc(-c2nc3sc4c(c3c(=O)[nH]2)CCCCCC4)cc1
CAKI-1 renal
  GI50: > 33.2 µM
  TGI: > 33.2 µM
HL-60(TB) leukemia
  GI50: 0.874 µM
  TGI: > 33.2 µM
IGROV1 ovarian
  GI50: 6.38 µM
  TGI: > 33.2 µM
A498 renal
  GI50: 0.897 µM
  TGI: > 33.2 µM
UACC-257 melanoma
  GI50: > 33.2 µM
  TGI: > 33.2 µM
OVCAR-8 ovarian
  GI50: 3.9 µM
  TGI: > 33.2 µM
CCRF-CEM leukemia
  GI50: > 33.2 µM
  TGI: > 33.2 µM
A549 NSCLC
  GI50: 2.94 µM
  TGI: > 33.2 µM
M14 melanoma
  GI50: 1.48 µM
  TGI: > 33.2 µM

## CC(C)c1cc(-c2n[nH]c(=O)n2-c2ccc3c(ccn3C)c2)c(O)cc1O
CAKI-1 renal
  GI50: 0.0479 µM
  TGI: > 71.5 µM
HL-60(TB) leukemia
  GI50: < 0.01 µM
  TGI: 21.8 µM
IGROV1 ovarian
  GI50: < 0.0225 µM
  TGI: 24.8 µM
A498 renal
  GI50: 0.0534 µM
  TGI: 14 µM
UACC-257 melanoma
  GI50: < 0.0195 µM
  TGI: 30.6 µM
OVCAR-8 ovarian
  GI50: < 0.0232 µM
  TGI: > 83.7 µM
CCRF-CEM leukemia
  GI50: < 0.0174 µM
  TGI: > 40.5 µM
A549 NSCLC
  GI50: < 0.0204 µM
  TGI: > 71.3 µM
M14 melanoma
  GI50: < 0.0198 µM
  TGI: 21.1 µM

## CCOC(=O)c1c2c(n3ccccc13)C(=O)c1ccccc1C2=O
CAKI-1 renal
  TGI: > 100 µM
HL-60(TB) leukemia
  TGI: > 100 µM
IGROV1 ovarian
  TGI: > 100 µM
A498 renal
  TGI: > 100 µM
EKVX NSCLC
  TGI: > 100 µM
UACC-257 melanoma
  TGI: > 100 µM
OVCAR-8 ovarian
  TGI: > 100 µM
A549 NSCLC
  TGI: 43.2 µM
M14 melanoma
  TGI: > 100 µM

## CC1=C(C)C(=O)c2c(cc3ccccn23)C1=O
HL-60(TB) leukemia
  TGI: 43.2 µM
IGROV1 ovarian
  TGI: 54.5 µM
A498 renal
  TGI: 46.1 µM
EKVX NSCLC
  TGI: 46.4 µM
OVCAR-8 ovarian
  TGI: 61.1 µM
CCRF-CEM leukemia
  TGI: > 100 µM
A549 NSCLC
  TGI: 43.1 µM
M14 melanoma
  TGI: 28.1 µM

## Cc1ccccc1[P+](Cc1ccccc1)(c1ccccc1)c1ccccc1
CAKI-1 renal
  GI50: 12.1 µM
  TGI: > 100 µM
HL-60(TB) leukemia
  GI50: 1.23 µM
  TGI: 4.04 µM
IGROV1 ovarian
  GI50: 1.8 µM
  TGI: 32.1 µM
A498 renal
  GI50: 1.46 µM
  TGI: 7.2 µM
UACC-257 melanoma
  GI50: 0.623 µM
  TGI: 4.23 µM
OVCAR-8 ovarian
  GI50: 1.92 µM
  TGI: 13.2 µM
CCRF-CEM leukemia
  GI50: 2.1 µM
  TGI: 33.5 µM
A549 NSCLC
  GI50: 3.07 µM
  TGI: > 100 µM
M14 melanoma
  GI50: 2.51 µM
  TGI: 12.6 µM
